# Several values for one entry are separate records, joined by “and”; a condition that tells them apart may be missing. Identical values can stand only once.
# System: Polygonum convolvulus
# Assay: Post-emergence action against weeds, greenhouse pot test, visual scoring
# Format: in vivo
# Conditions: 11 days after application, 0%=no control, 100%=complete control
# Description: Seeds or rhizome pieces of monocotyledonous and dicotyledonous weeds were placed in sandy loam soil in plastic pots, covered with soil and cultivated in a greenhouse under good growth conditions. Three weeks after sowing, the test plants were treated at the 2- to 4-leaf stage. The compounds according to the invention, formulated as wettable powders or as emulsion concentrates, were sprayed onto the green parts of the plants in various dosages at a water application rate of 100 to 800 I/ha (converted). After the test plants had been left to stand in the greenhouse for 10 to 28 days under optimum growth conditions, the effect of the preparations was scored visually in comparison to untreated controls.
# 0%=no control 100%=complete control
compound,measurement,setting,value
"Nc1c([N+](=O)[O-])ccc(Oc2ccccc2)c1Cl [Compound B1-2, aclonifen]",Polygonum convolvulus Control in %,100 g of ai/ha,20%
"Cc1cc(Cl)ccc1O[C@H](C)C(=O)O [Compound B4-5, mecoprop-P]",Polygonum convolvulus Control in %,200 g of ai/ha,50%
"O=C(O)COc1ccc(Cl)cc1Cl [Compound B5-2, 2,4-D]",Polygonum convolvulus Control in %,200 g of ai/ha,55%
"Cc1cc(Cl)ccc1OCC(=O)O [Compound B5-3, MCPA]",Polygonum convolvulus Control in %,200 g of ai/ha,50%
"C#CCOC(=O)[C@@H](C)Oc1ccc(Oc2ncc(Cl)cc2F)cc1 [Compound B7-1, clodinafop-propargyl]",Polygonum convolvulus Control in %,20 g of ai/ha,5%
"COC(=O)C(C)Oc1ccc(Oc2ccc(Cl)cc2Cl)cc1 (centres unmarked) [Compound B7-3, diclofop-methyl]",Polygonum convolvulus Control in %,1000 g of ai/ha,15%
"CCOC(=O)[C@@H](C)Oc1ccc(Oc2nc3ccc(Cl)cc3o2)cc1 [Compound B7-5, fenoxaprop-P-ethyl]",Polygonum convolvulus Control in %,45 g of ai/ha,35%
"sodium salt of 2-iodo-N-[(4-methoxy-6-methyl-1,3,5-triazin-2-yl)carbamoyl]benzenesulfonamide [Compound A-2]",Polygonum convolvulus Control in %,2.5 g of ai/ha,10% and 20%

# From US20100311586A1, “HERBICIDAL COMBINATION” (Bayer CorpScience AG, priority 2007, published 2010)
